According to ChEMBL document CHEMBL1140446, “Designed multiple ligands. An emerging drug discovery paradigm” (J Med Chem, 2005):

Columns and labels:
[1] = target: T1, Sodium-dependent serotonin transporter (Homo sapiens, UniProt P31645)
Description: Inhibitory concentration against serotonin transporter

[2] = target: Sodium-dependent dopamine transporter (Homo sapiens, UniProt Q01959)
Description: Inhibitory concentration against dopamine transporter

[3] = target: T2, Substance-P receptor (Homo sapiens, UniProt P25103)
Description: Inhibitory concentration against neurokinin NK1 receptor

[4] = target: T3, Histamine H1 receptor (Homo sapiens, UniProt P35367)
Description: Inhibitory concentration against histamine H1 receptor

[5] = target: Tyrosine-protein kinase ABL1 (Homo sapiens, UniProt P00519); assay: Inhibitory concentration against v-Abl tyrosine kinase
[6] = target: T1, Sodium-dependent serotonin transporter; assay: Negative logarithm causing 50% receptor occupancy against serotonin transporter
[7] = target: T2, Substance-P receptor; assay: Negative logarithm causing 50% receptor occupancy against tachykinin receptor 1
[8] = target: T4, Gastrin/cholecystokinin type B receptor (Homo sapiens, UniProt P32239); assay: Inhibitory concentration against gastrin receptor
[9] = target: T4, Gastrin/cholecystokinin type B receptor; assay: Inhibitory concentration against Cholecystokinin B receptor
[10] = target: Histamine H2 receptor (Homo sapiens, UniProt P25021); assay: Negative logarithm of the drug concentration against H2 histamine receptor; details: read-out: pA2 (converted)
[11] = target: T5, Angiotensin-converting enzyme (Homo sapiens, UniProt P12821); assay: Inhibition constant against angiotensin I converting enzyme
[12] = target: T6, Neprilysin (Homo sapiens, UniProt P08473); assay: Inhibition constant against neutral endopeptidase
[13] = target: Endothelin-converting enzyme 1 (Homo sapiens, UniProt P42892); assay: Inhibition constant against endothelin converting enzyme 1
[14] = target: Adrenergic receptor alpha-1 (Homo sapiens) (UniProt P35348+P25100+P35368); assay: Inhibition constant against alpha adrenergic receptor at 0.1 uM concentration; type: protein assay
[15] = target: T1, Sodium-dependent serotonin transporter; remark: listed apart in the source
Description: Inhibition constant against serotonin transporter

[16] = target: Platelet-activating factor receptor (Homo sapiens, UniProt P25105)
Description: Inhibitory concentration against platelet activating factor receptor

[17] = target: T7, D(2) dopamine receptor (Homo sapiens, UniProt P14416)
Description: Inhibitory concentration against dopamine receptor D2

[18] = target: 5-hydroxytryptamine receptor 2A (Homo sapiens, UniProt P28223)
Description: Inhibitory concentration against 5-hydroxytryptamine 2 receptor

[19] = target: T3, Histamine H1 receptor; remark: listed apart in the source
Description: Dissociation constant against histamine H1 receptor

[20] = target: Cysteinyl leukotriene receptor 1 (Cavia porcellus, UniProt Q2NNR5); assay: Inhibitory concentration against LTD4-induced contraction of guinea pig ileum at 10 uM concentration; type: tissue-based
[21] = target: Procathepsin L (Homo sapiens, UniProt P07711); assay: Inhibitory concentration against cathepsin L
[22] = target: T8, Adrenergic receptor alpha-1 (Homo sapiens, UniProt P35348+P25100+P35368)
T8 sequence (P35348 whole entry): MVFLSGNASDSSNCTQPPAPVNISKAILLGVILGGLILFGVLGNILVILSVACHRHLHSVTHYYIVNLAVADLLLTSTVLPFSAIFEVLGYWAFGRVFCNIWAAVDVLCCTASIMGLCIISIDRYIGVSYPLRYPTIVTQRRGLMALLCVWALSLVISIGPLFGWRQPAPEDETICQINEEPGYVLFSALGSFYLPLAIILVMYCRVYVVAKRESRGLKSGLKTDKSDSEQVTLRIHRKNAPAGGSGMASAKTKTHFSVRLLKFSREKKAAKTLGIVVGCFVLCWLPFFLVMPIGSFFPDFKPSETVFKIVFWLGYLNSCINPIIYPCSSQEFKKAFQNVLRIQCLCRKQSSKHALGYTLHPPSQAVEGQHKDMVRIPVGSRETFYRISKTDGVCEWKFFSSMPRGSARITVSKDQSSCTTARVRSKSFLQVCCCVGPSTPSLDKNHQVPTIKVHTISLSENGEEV
T8 sequence (P25100 whole entry): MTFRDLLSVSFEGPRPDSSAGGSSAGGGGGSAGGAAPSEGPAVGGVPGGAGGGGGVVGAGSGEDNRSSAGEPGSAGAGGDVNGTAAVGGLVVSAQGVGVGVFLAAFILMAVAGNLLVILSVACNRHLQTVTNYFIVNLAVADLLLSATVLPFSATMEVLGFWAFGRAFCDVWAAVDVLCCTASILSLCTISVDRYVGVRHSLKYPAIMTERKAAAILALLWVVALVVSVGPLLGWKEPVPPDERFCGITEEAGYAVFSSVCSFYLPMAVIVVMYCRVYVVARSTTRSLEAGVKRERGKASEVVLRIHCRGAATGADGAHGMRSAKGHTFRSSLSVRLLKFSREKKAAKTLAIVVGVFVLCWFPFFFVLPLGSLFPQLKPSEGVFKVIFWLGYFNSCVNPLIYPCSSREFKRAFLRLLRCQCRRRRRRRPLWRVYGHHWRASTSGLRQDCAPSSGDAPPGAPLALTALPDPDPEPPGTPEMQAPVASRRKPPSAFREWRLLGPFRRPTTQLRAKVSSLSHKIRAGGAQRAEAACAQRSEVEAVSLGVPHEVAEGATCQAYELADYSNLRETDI
T8 sequence (P35368 whole entry): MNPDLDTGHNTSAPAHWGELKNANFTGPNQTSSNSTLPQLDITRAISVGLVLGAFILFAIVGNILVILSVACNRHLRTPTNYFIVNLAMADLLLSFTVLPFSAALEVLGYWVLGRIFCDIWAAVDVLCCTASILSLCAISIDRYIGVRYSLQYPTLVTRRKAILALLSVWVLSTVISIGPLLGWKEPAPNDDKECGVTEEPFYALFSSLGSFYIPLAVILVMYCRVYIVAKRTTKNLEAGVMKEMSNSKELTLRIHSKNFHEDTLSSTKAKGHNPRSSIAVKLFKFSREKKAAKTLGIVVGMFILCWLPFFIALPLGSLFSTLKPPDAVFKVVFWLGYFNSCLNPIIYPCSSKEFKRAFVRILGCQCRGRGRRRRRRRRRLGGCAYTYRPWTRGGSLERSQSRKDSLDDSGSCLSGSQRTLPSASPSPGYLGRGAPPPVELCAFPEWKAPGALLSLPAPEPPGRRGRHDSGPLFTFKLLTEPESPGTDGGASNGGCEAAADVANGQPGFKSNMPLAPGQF
Description: Inhibitory concentration against alpha adrenergic receptor

[23] = target: T9, 5-hydroxytryptamine receptor 1A (Homo sapiens, UniProt P08908); assay: Inhibitory concentration against 5-hydroxytryptamine 1A receptor
T9 sequence (P08908 whole entry): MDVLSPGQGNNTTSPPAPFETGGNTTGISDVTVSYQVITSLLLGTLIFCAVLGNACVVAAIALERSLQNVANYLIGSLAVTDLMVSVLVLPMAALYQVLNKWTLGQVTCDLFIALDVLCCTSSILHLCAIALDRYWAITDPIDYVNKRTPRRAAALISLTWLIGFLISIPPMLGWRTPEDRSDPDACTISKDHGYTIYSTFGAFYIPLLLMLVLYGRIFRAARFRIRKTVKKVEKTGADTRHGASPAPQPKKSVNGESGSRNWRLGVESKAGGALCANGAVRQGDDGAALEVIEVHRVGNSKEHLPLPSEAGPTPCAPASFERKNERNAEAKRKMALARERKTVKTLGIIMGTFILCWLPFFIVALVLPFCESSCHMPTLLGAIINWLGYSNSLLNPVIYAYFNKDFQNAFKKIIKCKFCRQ

[24] = target: Acetylcholinesterase (Homo sapiens, UniProt P22303)
Description: Inhibitory concentration against acetylcholinesterase

[25] = target: T6, Neprilysin
Description: Inhibitory concentration against neutral endopeptidase

[26] = target: T5, Angiotensin-converting enzyme; assay: Inhibitory concentration against angiotensin I converting enzyme
[27] = target: T3, Histamine H1 receptor; remark: listed apart in the source
Description: Inhibition constant against histamine H1 receptor

[28] = target: Histamine H3 receptor (Homo sapiens, UniProt Q9Y5N1); assay: Inhibition constant against histamine H3 receptor
[29] = target: Beta-2 adrenergic receptor (Homo sapiens, UniProt P07550); assay: Negative logarithm causing 50% receptor occupancy against beta-2 adrenergic receptor
[30] = target: 5-hydroxytryptamine receptor 1B (Homo sapiens, UniProt P28222)
Description: Inhibition constant against 5-HT 1B receptor

[31] = target: 5-hydroxytryptamine receptor 1D (Homo sapiens, UniProt P28221); assay: Inhibition constant against 5-hydroxytryptamine 1D receptor
[32] = target: T7, D(2) dopamine receptor; remark: listed apart in the source
Description: Inhibition constant against dopamine receptor D2

[33] = target: T8, Adrenergic receptor alpha-1; assay: Inhibition constant against alpha adrenergic receptor; type: protein assay
[34] = target: T10, Substance-K receptor (Homo sapiens, UniProt P21452); assay: Binding affinity towards tachykinin receptor 2
T10 sequence (P21452 whole entry): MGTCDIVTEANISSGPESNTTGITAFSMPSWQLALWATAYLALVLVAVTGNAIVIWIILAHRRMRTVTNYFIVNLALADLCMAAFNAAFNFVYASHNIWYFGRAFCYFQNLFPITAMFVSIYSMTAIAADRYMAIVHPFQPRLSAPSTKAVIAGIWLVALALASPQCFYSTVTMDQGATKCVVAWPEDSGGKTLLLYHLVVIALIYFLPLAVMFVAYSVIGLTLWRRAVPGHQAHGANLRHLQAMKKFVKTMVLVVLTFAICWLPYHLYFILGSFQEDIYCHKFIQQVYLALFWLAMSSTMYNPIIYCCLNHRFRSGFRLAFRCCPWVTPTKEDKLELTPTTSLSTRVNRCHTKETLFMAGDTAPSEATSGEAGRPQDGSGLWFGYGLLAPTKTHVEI

[35] = target: T2, Substance-P receptor; remark: listed apart in the source
Description: Binding affinity towards tachykinin receptor 1

[36] = Oral bioavailability; type: ADME, organism-based; details: eutheria, in vivo
[37] = target: T9, 5-hydroxytryptamine receptor 1A
Description: Inhibition constant against 5-hydroxytryptamine 1A receptor

[38] = target: 5-hydroxytryptamine receptor 2A (Rattus norvegicus, UniProt P14842); assay: Inhibition constant against 5-Hydroxytryptamine 2 receptor in olfactory bulbectomized rat

T7 sequence (P14416 whole entry): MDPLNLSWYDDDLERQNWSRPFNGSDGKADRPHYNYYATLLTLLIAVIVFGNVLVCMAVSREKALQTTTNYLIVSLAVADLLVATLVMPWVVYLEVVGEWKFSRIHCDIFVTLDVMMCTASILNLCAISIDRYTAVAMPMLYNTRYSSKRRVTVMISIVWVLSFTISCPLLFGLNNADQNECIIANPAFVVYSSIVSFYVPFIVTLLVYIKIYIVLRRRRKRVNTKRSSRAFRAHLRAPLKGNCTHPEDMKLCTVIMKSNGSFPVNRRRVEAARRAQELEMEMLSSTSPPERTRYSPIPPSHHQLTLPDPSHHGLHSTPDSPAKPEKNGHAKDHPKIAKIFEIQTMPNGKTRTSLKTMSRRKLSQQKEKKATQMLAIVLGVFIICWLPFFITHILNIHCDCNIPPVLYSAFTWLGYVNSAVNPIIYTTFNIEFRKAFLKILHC
T5 sequence (P12821 whole entry): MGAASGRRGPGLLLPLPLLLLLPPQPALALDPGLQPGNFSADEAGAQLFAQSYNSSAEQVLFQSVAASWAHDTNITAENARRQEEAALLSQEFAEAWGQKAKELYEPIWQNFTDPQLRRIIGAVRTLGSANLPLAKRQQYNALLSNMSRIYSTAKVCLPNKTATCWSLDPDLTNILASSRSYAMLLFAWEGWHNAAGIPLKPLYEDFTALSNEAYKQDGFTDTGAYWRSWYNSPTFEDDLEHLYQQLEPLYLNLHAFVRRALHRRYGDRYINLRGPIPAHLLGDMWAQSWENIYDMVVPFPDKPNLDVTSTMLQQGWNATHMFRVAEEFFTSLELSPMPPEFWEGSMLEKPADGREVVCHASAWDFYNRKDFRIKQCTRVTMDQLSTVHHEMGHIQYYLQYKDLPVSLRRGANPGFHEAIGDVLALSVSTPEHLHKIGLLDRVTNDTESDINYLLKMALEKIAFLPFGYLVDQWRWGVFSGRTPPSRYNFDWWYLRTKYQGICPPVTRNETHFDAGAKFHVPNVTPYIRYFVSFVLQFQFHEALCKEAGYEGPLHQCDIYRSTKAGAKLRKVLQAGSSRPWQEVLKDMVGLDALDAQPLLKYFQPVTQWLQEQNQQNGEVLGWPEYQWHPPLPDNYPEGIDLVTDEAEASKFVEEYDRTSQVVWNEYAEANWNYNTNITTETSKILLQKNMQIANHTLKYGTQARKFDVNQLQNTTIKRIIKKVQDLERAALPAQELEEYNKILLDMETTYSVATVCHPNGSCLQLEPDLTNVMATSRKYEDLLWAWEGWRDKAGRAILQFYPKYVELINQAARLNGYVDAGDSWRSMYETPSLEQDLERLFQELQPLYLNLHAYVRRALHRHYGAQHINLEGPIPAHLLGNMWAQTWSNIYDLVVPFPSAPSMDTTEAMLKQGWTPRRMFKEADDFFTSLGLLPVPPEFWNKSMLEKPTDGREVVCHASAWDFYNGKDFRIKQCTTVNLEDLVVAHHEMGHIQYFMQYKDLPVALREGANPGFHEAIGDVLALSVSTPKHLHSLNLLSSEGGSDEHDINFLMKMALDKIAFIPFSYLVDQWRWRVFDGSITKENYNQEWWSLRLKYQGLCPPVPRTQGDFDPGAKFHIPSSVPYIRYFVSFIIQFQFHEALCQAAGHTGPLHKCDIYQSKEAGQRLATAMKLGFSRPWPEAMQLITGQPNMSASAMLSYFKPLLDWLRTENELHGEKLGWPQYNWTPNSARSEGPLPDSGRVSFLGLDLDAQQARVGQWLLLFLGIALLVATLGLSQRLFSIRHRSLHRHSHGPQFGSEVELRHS
T2 sequence (P25103 whole entry): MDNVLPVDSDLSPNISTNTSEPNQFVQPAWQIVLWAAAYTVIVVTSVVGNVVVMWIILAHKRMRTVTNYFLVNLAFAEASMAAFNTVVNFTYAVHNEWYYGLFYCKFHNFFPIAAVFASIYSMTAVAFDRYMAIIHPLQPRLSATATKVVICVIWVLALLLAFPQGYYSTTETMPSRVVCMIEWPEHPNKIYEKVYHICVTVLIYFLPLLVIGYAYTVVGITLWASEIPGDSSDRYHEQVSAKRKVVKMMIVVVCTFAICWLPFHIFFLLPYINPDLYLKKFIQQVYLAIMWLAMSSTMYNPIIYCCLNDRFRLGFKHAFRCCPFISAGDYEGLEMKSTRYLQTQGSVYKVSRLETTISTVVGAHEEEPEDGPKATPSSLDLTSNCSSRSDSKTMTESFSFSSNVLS
T1 sequence (P31645 whole entry): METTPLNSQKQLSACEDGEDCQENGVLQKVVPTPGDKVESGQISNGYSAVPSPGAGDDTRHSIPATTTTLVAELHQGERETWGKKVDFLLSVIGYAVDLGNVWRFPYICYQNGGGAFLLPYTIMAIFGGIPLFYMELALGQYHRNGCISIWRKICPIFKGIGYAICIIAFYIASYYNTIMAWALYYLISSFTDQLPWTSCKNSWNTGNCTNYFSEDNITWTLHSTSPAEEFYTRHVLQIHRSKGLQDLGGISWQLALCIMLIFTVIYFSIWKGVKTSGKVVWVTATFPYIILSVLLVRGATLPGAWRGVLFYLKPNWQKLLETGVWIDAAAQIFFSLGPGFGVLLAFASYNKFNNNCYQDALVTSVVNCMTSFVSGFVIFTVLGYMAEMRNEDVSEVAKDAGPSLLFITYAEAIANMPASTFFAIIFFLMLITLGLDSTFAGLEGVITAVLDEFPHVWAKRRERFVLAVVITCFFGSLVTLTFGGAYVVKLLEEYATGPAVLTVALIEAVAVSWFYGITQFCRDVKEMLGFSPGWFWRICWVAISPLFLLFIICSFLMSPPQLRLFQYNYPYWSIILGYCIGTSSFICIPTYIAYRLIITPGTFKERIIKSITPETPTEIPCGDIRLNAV
T6 sequence (P08473 whole entry): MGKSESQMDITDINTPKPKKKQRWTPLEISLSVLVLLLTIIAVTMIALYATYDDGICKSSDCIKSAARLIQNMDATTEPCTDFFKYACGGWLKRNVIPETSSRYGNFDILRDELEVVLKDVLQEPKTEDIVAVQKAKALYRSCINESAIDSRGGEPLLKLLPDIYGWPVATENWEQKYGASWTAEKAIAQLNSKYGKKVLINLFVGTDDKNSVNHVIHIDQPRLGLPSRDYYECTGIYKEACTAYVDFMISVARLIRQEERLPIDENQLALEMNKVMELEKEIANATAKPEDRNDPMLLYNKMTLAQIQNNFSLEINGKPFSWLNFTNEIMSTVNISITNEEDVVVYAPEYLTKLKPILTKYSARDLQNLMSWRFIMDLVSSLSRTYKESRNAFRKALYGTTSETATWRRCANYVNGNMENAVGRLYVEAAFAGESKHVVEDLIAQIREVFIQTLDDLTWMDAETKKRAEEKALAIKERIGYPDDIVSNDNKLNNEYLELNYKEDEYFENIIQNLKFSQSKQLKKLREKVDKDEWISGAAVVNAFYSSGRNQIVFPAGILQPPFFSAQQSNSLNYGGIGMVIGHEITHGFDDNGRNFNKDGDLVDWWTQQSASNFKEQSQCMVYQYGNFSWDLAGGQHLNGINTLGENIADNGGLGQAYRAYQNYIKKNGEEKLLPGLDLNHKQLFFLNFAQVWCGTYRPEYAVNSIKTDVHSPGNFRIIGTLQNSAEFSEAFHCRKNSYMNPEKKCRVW
T3 sequence (P35367 whole entry): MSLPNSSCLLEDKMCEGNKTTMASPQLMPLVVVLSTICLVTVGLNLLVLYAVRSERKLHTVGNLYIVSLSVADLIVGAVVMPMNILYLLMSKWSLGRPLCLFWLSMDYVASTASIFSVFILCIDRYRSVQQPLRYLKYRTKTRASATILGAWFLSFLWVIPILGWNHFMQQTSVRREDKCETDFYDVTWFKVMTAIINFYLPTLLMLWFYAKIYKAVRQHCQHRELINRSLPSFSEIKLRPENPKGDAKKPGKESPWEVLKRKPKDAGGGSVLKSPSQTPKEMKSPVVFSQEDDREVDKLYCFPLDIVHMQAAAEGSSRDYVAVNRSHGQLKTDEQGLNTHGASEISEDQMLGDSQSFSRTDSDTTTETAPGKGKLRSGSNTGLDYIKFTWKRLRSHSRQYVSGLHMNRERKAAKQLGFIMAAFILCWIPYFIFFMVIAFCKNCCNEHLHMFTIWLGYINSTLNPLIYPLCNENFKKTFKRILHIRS
Sequence of Platelet-activating factor receptor (P25105 whole entry): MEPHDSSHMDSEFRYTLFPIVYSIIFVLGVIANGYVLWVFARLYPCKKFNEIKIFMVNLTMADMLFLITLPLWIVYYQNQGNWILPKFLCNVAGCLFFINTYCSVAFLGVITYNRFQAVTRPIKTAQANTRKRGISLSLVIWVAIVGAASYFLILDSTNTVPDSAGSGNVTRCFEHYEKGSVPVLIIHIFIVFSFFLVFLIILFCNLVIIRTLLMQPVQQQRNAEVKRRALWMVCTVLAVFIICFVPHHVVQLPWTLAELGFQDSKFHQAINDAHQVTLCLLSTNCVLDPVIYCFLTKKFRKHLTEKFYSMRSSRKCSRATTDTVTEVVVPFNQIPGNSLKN
T4 sequence (P32239 whole entry): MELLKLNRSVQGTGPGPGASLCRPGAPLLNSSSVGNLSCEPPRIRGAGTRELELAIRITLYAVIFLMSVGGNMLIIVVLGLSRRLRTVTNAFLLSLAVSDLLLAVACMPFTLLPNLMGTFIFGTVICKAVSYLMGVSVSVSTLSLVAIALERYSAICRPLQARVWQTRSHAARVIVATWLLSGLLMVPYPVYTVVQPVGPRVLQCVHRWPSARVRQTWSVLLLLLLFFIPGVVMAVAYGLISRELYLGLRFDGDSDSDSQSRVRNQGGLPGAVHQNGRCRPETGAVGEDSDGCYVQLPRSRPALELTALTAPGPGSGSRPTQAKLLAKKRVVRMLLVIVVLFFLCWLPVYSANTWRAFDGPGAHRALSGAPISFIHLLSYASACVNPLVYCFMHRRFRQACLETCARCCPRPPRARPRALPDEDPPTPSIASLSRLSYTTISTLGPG

CN(C)C[C@@H]1C2CCC(CC2)[C@@H]1c1cccc(Cl)c1
IC50 [1]: 270 nM | IC50 [2]: 28 nM

COc1cc(C(=O)N2CC[C@](CCN3CCC(C(N)=O)(c4ccccc4)CC3)(c3ccc(Cl)c(Cl)c3)C2)cc(OC)c1OC
IC50 [3]: > 10000 nM | IC50 [4]: 3 nM

COc1ccc(C2(CCN3CCC(C(=O)c4nc5ccccc5n4Cc4ccc(F)cc4)CC3)CCN(C(=O)c3cc(OC)c(OC)c(OC)c3)C2)cc1OC (stereo not drawn)
IC50 [3]: 31 nM

O=C(Nc1cccc(Nc2nccc(-c3cccnc3)n2)c1)c1ccccc1
IC50 [5]: 400 nM

O=C(CCc1cc(C(F)(F)F)cc(C(F)(F)F)c1)N(c1ccc(F)cc1)C1CCNCC1
Ki [6]: 251 nM | Ki [7]: 200 nM

CN1C(=O)[C@H](NC(=O)Nc2ccc(CC(=O)NCCC(=O)NCCCOc3cccc(CN4CCCCC4)c3)cc2)N=C(c2ccccc2)c2ccccc21
IC50 [8]: 136 nM | IC50 [9]: 290 nM | Kb [10]: 251 nM

COc1ccc2c(c1)CC[C@H]2[C@@H](CS)C(=O)N[C@@H](Cc1c[nH]c2ccccc12)C(=O)O
Ki [11]: 1.3 nM | Ki [12]: 24 nM | Ki [13]: 10 nM

Fc1cc2c(c(OCCNCCCc3c[nH]c4ccc(F)cc34)c1)OCCC2
inhibition [14]: 79% | Ki [15]: 0.5 nM

Cc1cncc(CN2CCC(=C3c4ccc(Cl)cc4CCc4cccnc43)CC2)c1 [RUPATADINE]
IC50 [16]: 3700 nM

c1ccc2c(N3CCNCC3)cccc2c1
IC50 [17]: > 1000 nM | IC50 [18]: 62 nM

O=C(N[C@H](CN1CCC(OC2c3ccccc3CCc3ccccc32)CC1)C(=O)O)OCc1ccccc1
Kd [19]: 410 nM | IC50 [20]: 1550 nM

CC(=O)N1CCC(=C2c3ccc(Cl)cc3CCc3cccnc32)CC1 [SCH-37370]
IC50 [16]: 840 nM | IC50 [4]: 100 nM

CC(C)C[C@H](CC(=O)NO)C(=O)N[C@@H](Cc1ccccc1)C(=O)N[C@@H](C)C=O
IC50 [21]: 25 nM

O=C1Cc2cc(CCN3CCN(c4cccc5ccccc45)CC3)ccc2N1
IC50 [17]: 44 nM | IC50 [18]: 20 nM | IC50 [22]: 45 nM | IC50 [23]: 5 nM

CN[C@@H](CCOc1ccc([N+](=O)[O-])cc1)c1ccc(OC(=O)N(C)C)cc1
IC50 [24]: 101 nM | IC50 [1]: 42 nM

O=C(N[C@H]1Cc2ccccc2C2CCC[C@H](C(=O)O)N2C1=O)[C@H](S)Cc1ccccc1 (stereo partly drawn)
IC50 [25]: 0.08 nM | IC50 [26]: 0.11 nM

CN1CCC(=C2c3ccccc3C=Cc3ccccc32)CC1 [CYPROHEPTADINE]
IC50 [20]: > 100000 nM

CN(CCCCc1c[nH]cn1)CCC(c1ccc(Cl)cc1)c1ccccn1 (stereo not drawn)
Ki [27]: 7 nM | Ki [28]: 15 nM

Cc1ccc2c(OCCN3CCC(Cc4ccc5c(c4)NC(=O)CO5)CC3)cccc2n1
Ki [6]: 6.31 nM | Log Ki [29]: < -6.3

C[C@@H]1CN(c2cccc3cc(F)ccc23)CCN1CCC1OCCc2c1sc(C(N)=O)c2Cl (stereo partly drawn)
Ki [30]: > 1000 nM | Ki [31]: 45 nM | Ki [32]: 291 nM | Ki [33]: 140 nM | IC50 [1]: 2.1 nM

CN(C(=O)c1cc(C(F)(F)F)cc(C(F)(F)F)c1)[C@@H](/C=C/C(=O)NCCN1CCCCC1)Cc1ccc(Cl)cc1
IC50 [34]: 49 nM | IC50 [35]: 10 nM

OC(CCc1ccccc1)CN1CCC2(CC1)OCc1c2ccc2ccccc12 (stereo not drawn)
Ki [15]: 10 nM | bioavailability [36]: 65%

O=C(O)CCNC(=O)C(CS)Cc1ccccc1 (stereo not drawn)
IC50 [25]: 9.4 nM | IC50 [26]: 32000 nM

COc1cccc2c1CCC[C@H]2CN(C)CCc1ccc2ccoc2c1
Ki [37]: 2 nM | Ki [38]: 144 nM

NC(=O)c1ccc2c(c1)CCOC2CCN1CC=C(c2c[nH]c3cc(F)ccc23)CC1 (stereo not drawn)
Ki [32]: 4.7 nM | Ki [33]: 16 nM | IC50 [1]: 0.11 nM
